We go through 1 compound from US20110212100A1, “METHODS FOR MODULATING DEVELOPMENT AND EXPANSION OF IL-17 EXPRESSING CELLS” (priority 2007, published 2011).

SMILES strings stand for the structures.

Test [1] concerns human memory T cells (CD4+ CD45RO+). Description: IL-17 and IFNγ expression by human memory T cells co-cultured with monocytes. The settings on record: 100 nM HF, 6 days. The class given is cell-based. The protocol:
FIG. 10F is an illustration depicting purified primary human memory T cells (CD4^+ CD45RO^+) activated by anti-CD3/anti-CD28 coated beads in co-culture with CD14^+ monocytes and treated with DMSO, 100 nM HF or 100 nM MAZ1310. T cells were expanded for 6 days and intracellular cytokine expression was determined following restimuation with PMA plus ionomycin in the presence of brefeldin A.
Human T cell isolation and activation: Resting CD4^+ T cells were isolated from PBMC of healthy human donors using Dynal CD4 Positive Isolation Kit (Invitrogen, Carlsbad, Calif.) as previously described (M. Sundrud et al., Blood 106, 3440, 2005). CD4^+ cells were further purified to obtain memory T cells by staining with PE-conjugated anti-human CD45RO-PE antibodies (BD Biosciences), and sorting on a FACSAria cytometer (BD Biosciences). Following purification, cells were greater than 99% CD4^+ CD45RO^+. […] T cells were expanded in the presence HF or MAZ1310 as indicated for 6 days and intracellular cytokine expression was determined by intracellular staining.
Detection of cytokine production: Cytokines secreted into media supernatant were measured using the mouse Th1/Th2 cytometric bead array (CBA, BD Pharmingen) in accordance with manufacturers instructions. […]

The next test deals with STAT3 phosphorylation. Description: Kinetics of STAT3 phosphorylation in developing Th17 cells. The class given is cell-based, mouse. On the procedure: FIG. 11A is a series of graphs depicting representative histograms displaying the kinetics of STAT3 phosphorylation in developing Th17 cells treated with or without HF. Resting naïve T cells (shaded peak), T cells activated in the presence of TGFβ plus IL-6 (TGFβ/IL-6) treated with 10 nM MAZ1310, TGFβ/IL-6-activated T cells treated with 5 nM HF, TGFβ/IL-6-activated T cells treated with 10 nM HF. T cells were fixed at the indicated times and intracellular phospho-STAT3 staining was performed.
FACS analyses and sorting: All cell surface staining was performed in FACS buffer (PBS/2% FCS/0.1% NaN3) and antibodies were incubated with cells on ice for 20-30 minutes. Cells were washed with FACS buffer and fixed with FACS buffer plus 1% paraformaldehyde prior to data acquisition. For phospho-STAT3 intracellular staining, stimulated T cells cultured with or without TGF plus IL-6 for the indicated times were harvested on ice and fixed in PBS plus 2% paraformaldehyde for 10 minutes at 37° C. Fixed cells were washed twice with staining buffer (PBS/1% BSA/0.1% NaN3) and then permeabilized with perm buffer III (BD Pharmingen) on ice for 30 minutes. […] All FACS data was acquired on a FACSCalibur flow cytometer (BD Pharmingen) and analyzed using FlowJo software (Treestar, Inc., Ashland, Oreg.). […]

For test [2], the system named is Th17 differentiation of CD4+ CD25− T cells. Description: Th17 differentiation (IL-17+ IFNγ− cells) of T cells activated with TGFβ plus IL-6. The class given is cell-based. As to conditions: Mus musculus, T-cell, 96 h; murine CD4+ CD25− T cells, restimulation on day 4-5; ± 0.4 nM; read-out: IC50 of repression of Th17 differentiation (percentage of IL-17+ IFNγ− cells).

In the case of `O=C(CC1NCCCC1O)Cn1cnc2cc(Br)c(Cl)cc2c1=O` (racemic) [HF, 7-bromo-6-chloro-3-[3-(3-hydroxy-2-piperidinyl)-2-oxopropyl]-4(3H)-quinazolinone], in test [1], the “IFNγ expression by human T cells, in words” value is recorded as “essentially unaffected”; the “percentage of human T cells expressing IL-17 and amount of IL-17 produced, in words” value was “greatly reduced”. Further, the “time post activation at which maintenance of STAT3 phosphorylation begins to decrease” value in the test with STAT3 phosphorylation (5 or 10 nM HF, TGFβ plus IL-6) is on record as “around 12 hours”. Moreover, the “effect on early STAT3 activation, in words” value in the test with STAT3 phosphorylation (first 6 hours of Th17 differentiation) is “did not interfere with STAT3 activation during the first 6 hours”. Moreover, the IC50 in test [2] is 3.6 nM.

A word on the IC50: it is the midpoint of a concentration-inhibition curve.
